Results reported in US12129221B2, “Difluoro phenyl amide RIP1 inhibitor” (SIRONAX LTD, priority 2018, dated 2024).

Assays:
[1] = tested on: HT-29; test: EC50 in HT-29; assay type: cell-based; settings: Homo sapiens
[2] = Liver microsome stability, human; assay type: in vitro ADME; settings: liver microsomes
Source text: (§1) Representative Metabolic Stability Data I; +, Extrapolated.

[3] = Liver microsome stability, rat; assay type: in vitro ADME; settings: liver microsomes
Source text: as §1

[4] = Liver microsome stability, mouse; assay type: in vitro ADME; settings: liver microsomes
Source text: as §1

[5] = Liver microsome stability, dog; assay type: in vitro ADME; settings: dog, liver microsomes
Source text: as §1

[6] = Liver microsome stability, mini-pig; assay type: in vitro ADME; parameters: key to mini-pig T1/2 (min): +, Extrapolated
Source text: as §1

[7] = Liver microsome stability, monkey; assay type: in vitro ADME; settings: monkey, liver microsomes
Source text: as §1

[8] = Hepatocyte stability, human; assay type: in vitro ADME; parameters: key to Human T1/2 (min): +, Extrapolated; settings: for half-life: human, hepatocytes, read-out: Human T1/2
Source text: (§2) Representative Metabolic Stability Data II, +, Extrapolated.

[9] = Hepatocyte stability, rat; assay type: in vitro ADME; parameters: key to Rat T1/2 (min): +, Extrapolated; settings: for half-life: rat, hepatocytes, read-out: Rat T1/2
Source text: as §2

[10] = Hepatocyte stability, mouse; assay type: in vitro ADME; parameters: key to Mouse T1/2 (min): +, Extrapolated; settings: for half-life: mouse, hepatocytes, read-out: Mouse T1/2
Source text: as §2

[11] = Hepatocyte stability, dog; assay type: in vitro ADME; parameters: key to Dog T1/2 (min): +, Extrapolated; settings: for half-life: dog, hepatocytes, read-out: Dog T1/2
Source text: as §2

[12] = Hepatocyte stability, mini-pig; assay type: in vitro ADME; parameters: key to mini-pig T1/2 (min): +, Extrapolated
Source text: as §2

[13] = Hepatocyte stability, monkey; assay type: in vitro ADME; parameters: key to Monkey T1/2 (min): +, Extrapolated; settings: for half-life: monkey, hepatocytes, read-out: Monkey T1/2
Source text: as §2

[14] = PK in rat; parameters: species or system SD rat; settings: Sprague-Dawley, in vivo; for half-life / bioavailability: rat
Source text: Representative PK Date of Pro-Drug Compounds

[15] = PK in mouse; settings: in vivo; for Vd: read-out: Vdss
[16] = PK in dog; settings: in vivo; for Vd: read-out: Vdss
[17] = PK in monkey; settings: in vivo
[18] = tested on: necrosis; test: Necrosis inhibitory activity (cell necrosis / cell viability assay); assay type: cell-based; settings: Necrosis Inhibitory Activity, given as range; read-out: EC50
Source text: Necrosis Inhibitory Activity
Representative IC50 of hRIP1 Kinase Assay Correlated with Our IC50 of Cell Necrosis Assay: […]

[19] = tested on: ferroptosis; test: Ferroptosis inhibitor activity; assay type: cell-based; settings: 1 uM threshold activity extrapolated
Source text: Ferroptosis Inhibitor Activity 1 Um Threshold Activity Extrapolated

[20] = comparison table with WO2016/101885 compounds, read-out: Human Liver Microsome T1/2
[21] = comparison table with WO2016/101885 compounds, read-out: Rat Liver Microsome T1/2
[22] = comparison table with WO2016/101885 compounds, read-out: Mouse Liver Microsome T1/2
[23] = liver microsome stability, read-out: Human T1/2
[24] = liver microsome stability, read-out: Rat T1/2
[25] = liver microsome stability, read-out: Mouse T1/2
[26] = liver microsome stability, read-out: Dog T1/2
[27] = liver microsome stability, read-out: Monkey T1/2
[28] = Hepatocyte Stability, comparison table
[29] = po, 10 mg/kg, SD rat, PO 10 mg/kg
[30] = Hepatocyte stability, extrapolated

CCC(C)(C)C(=O)N(O)Cc1cc(F)c(F)c(F)c1 [SIR1-186]
EC50 [1]: 46 nM | half-life [2, 20]: 64 min | half-life [3, 21]: 21 min | half-life [4, 22]: 6 min

CCC(C)(C)C(=O)N(O)Cc1ccc(F)cc1F [SIR1-179]
EC50 [1]: 197 nM | half-life [2, 20]: 198 min | half-life [3, 21]: 28 min | half-life [4, 22]: 23 min

CCC(C)(C)C(=O)N(O)Cc1ccccc1 [Compound 92, reference compound]
EC50 [1]: 25 nM | half-life [2, 23]: 204 min | half-life [3, 21]: 25 min | half-life [3, 24]: 25.1 min | half-life [4, 22]: 32 min | half-life [4, 25]: 32.5 min | half-life ([5]; comparison table with WO2016/101885 compounds, read-out: Dog Liver Microsome T1/2): 7 min | half-life [5, 26]: 7.1 min | half-life ([6]; minipig, liver microsomes, read-out: mini-pig T1/2): 53.5 min | half-life ([7]; comparison table with WO2016/101885 compounds, read-out: Monkey Liver Microsome T1/2): 3 min | half-life [7, 27]: 2.95 min | half-life [8, 28]: 73 min | half-life ([8]; Hepatocyte stability): 73.1 min | half-life [9, 28]: 14 min | half-life ([9]; Hepatocyte stability): 14.2 min | half-life [10, 28]: 24 min | half-life ([10]; Hepatocyte stability): 24.4 min | half-life [11, 28]: 14 min | half-life ([11]; Hepatocyte stability): 13.9 min | half-life ([12]; minipig, hepatocytes, read-out: mini-pig T1/2): 23.1 min | half-life [13, 28]: 19 min | half-life ([13]; Hepatocyte stability): 18.9 min | AUC(0-inf) ([14]; Rat, IV 2 mg/kg): 520 ng·h/mL | clearance ([14]; Rat, IV 2 mg/kg): 64 mL/min/kg | Vd ([14]; Rat, IV 2 mg/kg, read-out: Vdss): 1.2 L/kg | AUC(0-inf) ([14]; Rat, PO 10 mg/kg): 214 ng·h/mL | Cmax ([14]; Rat, PO 10 mg/kg): 148 ng/mL | AUC ([14]; SD rat, PO 10 mg/kg): 29.9 ng·h/mL | half-life ([14]; iv, 2 mg/kg, IV 2 mg/kg): 18 min | bioavailability ([14]; po, 10 mg/kg, PO 10 mg/kg): 1.2% | half-life ([14]; po, 10 mg/kg, PO 10 mg/kg): 48 min | bioavailability [14, 29]: 1.15% | half-life [14, 29]: 38.4 min | AUC(0-inf) ([15]; IV 2 mg/kg): 323 ng·h/mL | clearance ([15]; IV 2 mg/kg): 103 mL/min/kg | half-life ([15]; IV 2 mg/kg): 186 min | Vd ([15]; IV 2 mg/kg): 3.08 L/kg | AUC(0-inf) ([15]; PO 10 mg/kg): 349 ng·h/mL | Cmax ([15]; PO 10 mg/kg): 249 ng/mL | bioavailability ([15]; PO 10 mg/kg): 21.6% | half-life ([15]; PO 10 mg/kg): 96 min | AUC(0-inf) ([16]; IV 3 mg/kg): 1960 ng·h/mL | clearance ([16]; IV 3 mg/kg): 25.6 mL/min/kg | half-life ([16]; IV 3 mg/kg): 72 min | Vd ([16]; IV 3 mg/kg): 1.24 L/kg | AUC(0-inf) ([16]; PO 10 mg/kg): 136 ng·h/mL | Cmax ([16]; PO 10 mg/kg): 171 ng/mL | bioavailability ([16]; PO 10 mg/kg): 1.95% | half-life ([16]; PO 10 mg/kg): 81 min | AUC(0-inf) ([17]; IV 2 mg/kg): 1940 ng·h/mL | clearance ([17]; IV 2 mg/kg): 17.6 mL/min/kg | half-life ([17]; IV 2 mg/kg): 46.2 min | Vd ([17]; IV 2 mg/kg, read-out: Vdss): 0.86 L/kg | AUC(0-inf) ([17]; PO 10 mg/kg): 374 ng·h/mL | Cmax ([17]; PO 10 mg/kg): 185 ng/mL | bioavailability ([17]; PO 10 mg/kg): 2.6% | half-life ([17]; PO 10 mg/kg): 43.8 min

CCC(C)(C)C(=O)N(O)Cc1ccc(F)cc1 [SIR1-181]
EC50 [1]: 64 nM | half-life [2, 20]: 178 min | half-life [3, 21]: 37 min | half-life [4, 22]: 24 min | AUC(0-inf) ([14]; Rat, PO 10 mg/kg): 24.3 ng·h/mL | Cmax ([14]; Rat, PO 10 mg/kg): 32.3 ng/mL | half-life ([14]; po, 10 mg/kg, PO 10 mg/kg): 32.5 min | AUC(0-inf) ([15]; IV 2 mg/kg): 522 ng·h/mL | clearance ([15]; IV 2 mg/kg): 63.7 mL/min/kg | half-life ([15]; IV 2 mg/kg): 35.7 min | Vd ([15]; IV 2 mg/kg): 3.28 L/kg | AUC(0-inf) ([15]; PO 10 mg/kg): 1740 ng·h/mL | Cmax ([15]; PO 10 mg/kg): 2850 ng/mL | bioavailability ([15]; PO 10 mg/kg): 66.6% | half-life ([15]; PO 10 mg/kg): 30.8 min | AUC(0-inf) ([16]; IV 5 mg/kg): 3210 ng·h/mL | clearance ([16]; IV 5 mg/kg): 25.9 mL/min/kg | half-life ([16]; IV 5 mg/kg): 120 min | Vd ([16]; IV 5 mg/kg): 1.8 L/kg | AUC(0-inf) ([16]; PO 10 mg/kg): 148 ng·h/mL | Cmax ([16]; PO 10 mg/kg): 195 ng/mL | bioavailability ([16]; PO 10 mg/kg): 2.5% | half-life ([16]; PO 10 mg/kg): 276 min

CCC(C)(C)C(=O)N(O)Cc1ccc(F)c(F)c1F [SIR1-184]
EC50 [1]: 272 nM | half-life [2, 20]: 36 min | half-life [3, 21]: 19 min | half-life [4, 22]: 12 min

C=CC(C)(C)C(=O)N(O)Cc1ccccc1 [Compound 19, N-benzyl-N-hydroxy-2,2-dimethylbut-3-enamide]
EC50 [18]: 1 to 1000 nM | EC50 [19]: 1000 to 10000 nM | half-life [2, 23]: 154 min | half-life [3, 24]: 28.9 min | half-life [4, 25]: 25.4 min | half-life [5, 26]: 6 min | mini-pig T1/2 (min) ([6]; extrapolated): + | half-life [7, 27]: 0.3 min | Human T1/2 (min) [8, 30]: + | Rat T1/2 (min) [9, 30]: + | Mouse T1/2 (min) [10, 30]: + | Dog T1/2 (min) [11, 30]: + | mini-pig T1/2 (min) ([12]; extrapolated): + | Monkey T1/2 (min) [13, 30]: +
